{"source": "patent US9522198B2", "about": "“Methods and compositions related to targeting tumors and wounds” (Sanford-Burnham Medical Research Institute, priority 2006, dated 2016)", "key": {"[1]": {"test_system": "human umbilical venous endothelial cells (HUVECs)", "type": "cell-based", "source_text": "CLT1 contains a sequence of three consecutive hydrophobic residues, LII (leucine-isoleucine-isoleucine). This motif is very similar to the VII sequence (V, valine) which causes proteins to form large insoluble aggregates (Esteras-Chopo et al. 2005). […] The ability of CLT1 to aggregate proteins correlates with its cytotoxicity for human umbilical venous endothelial cells (HUVECs)."}, "[2]": {"test_system": "mouse Lewis lung carcinoma", "assay": "Peptide overlay assay on frozen tumor sections", "type": "binding", "description": "(§1) The mice were perfused through the heart 3 hours after the peptide injection and tissues removed for examination. For fibrin and fibronectin immunostaining, tissues were fixed with 4% paraformaldehyde and stained with biotinylated mouse fibrin(ogen) antiserum (Nordic Immunological Laboratories) or a polyclonal anti-mouse fibronectin (Chemicon), followed by streptavidin Alexa 594 or anti-rabbit Alexa 594 (Molecular Probes), respectively. For peptide overlay, sections of frozen OCT embedded tissue were incubated with 10 μg/ml fluorescein-conjugated peptide for 30 min at room temperature. Tissue fluorescence was quantified using Image-Pro Plus software. At least two images from representative microscopic fields were analyzed from each tissue sample and data from individual mice that received the same treatment (n=2-8) were pooled."}, "[3]": {"test_system": "PPC1 xenograft tumor", "assay": "Peptide overlay assay on frozen tumor sections", "type": "binding", "conditions": "PPC1 xenografts", "description": "as §1"}, "[4]": {"test_system": "orthotopic MDA-MB-435 xenograft tumors", "assay": "Tumor homing of i.v. injected fluorescein-conjugated peptides, MDA-MB-435 xenografts", "type": "in vivo, mouse", "source_text": "To determine whether the CLT peptides would recognize clotted plasma proteins in vivo, the peptides were synthesized as fluorescein conjugates and imaged their accumulation in tumors. Mice bearing orthotopic MDA-MB-435 xenograft tumors were intravenously injected with fluorescein-conjugated CLT1 (n=6), CLT2 (n=4), or a control peptide (n=4) with the sequence KAREC (SEQ ID NO: 5).\nB16F1 mouse melanoma, Lewis lung carcinoma, C8161 human melanoma, MDA-MB-435 human breast cancer, and PPC-1 human prostate cancer cells (American Type Culture Collection) were maintained in RPMI or DMEM supplemented with 10% FCS. Human tumor cells (1×10^6) were injected into the mammary fat pad or the flank of nude BALB/c nu/nu mice to induce tumors. MMTV PyMT mice were provided by Dr. Robert Oshima (Burnham Institute for Medical Research, La Jolla, Calif.). The MMTV PyMT mice develop breast cancer under the influence of a polyoma middle T antigen driven by the mouse tumor virus promoter (Siegel, P. M., Ryan, E. D., Cardiff, R. D., Muller W. J. (1999) EMBO J., 18, 2149-64). B16F1 tumors induced by injecting 1×10^6 cells subcutaneously were grown in the flank of fibrinogen knock-out mice (Suh, T. T., Holmback, K., Jensen, N. J., Daugherty, C. C., Small, K., Simon, D. I., Potter, S., & Degen, J. L. (1995) Genes Dev. 9, 2020-2033), and of transgenic plasma fibronectin-deficient C57BL/6-Fn(f1/f1) Mx-Cre^+ (Sakai, T., Johnson, K. J., Murozono, M., Sakai, K., Magnuson, M. A., Wieloch, T., Cronberg, T., Isshiki, A., Erickson, H. P., & Fassler R. (2001) Nat. Med. 7, 324-30) and their wild type littermates. Deletion of the fibronectin gene in the liver was induced by poly(I):poly(C) (Yi, M., Sakai, T., Fassler, R., & Ruoslahti, E. (2003) Proc. Natl. Acad. Sci. USA. 100, 11435-11438). Frozen human tissues from clinical breast cancers were provided by the Western Division of the NCI Cooperative Human Tissue Network (Vanderbilt University Medical Center, Nashville, Tenn.).\nPeptides were synthesized and conjugated to fluorescein isothiocyanate as described (Laakonen et al. PNAS 2004), and cyclized by exposure to air.\nImaging under a blue light, and examination of the distribution of fluorescein-conjugated peptides after tail vein injection have been described (Hoffman, R. M. (2005) Nature Reviews Cancer 5, 796-806; Laakkonen, P., Akerman, M. E., Biliran, H., Yang, M., Ferrer, F., Karpanen, T., Hoffman, R. M., & Ruoslahti E. (2004) Proc. Natl. Acad. Sci. USA 101, 9381-6).\nThe imaging methods are briefly described as follows: A Leica fluorescence stereomicroscope, model LZ12, equipped with a 50-W mercury lamp, was used for high-magnification imaging. Selective excitation of GFP was produced through a D425y60 band-pass filter and 470 DCXR dichroic mirror. Emitted fluorescence was collected through a long-pass filter GG475 (Chroma Technology, Brattleboro, Vt.) on a Hamamatsu C5810 3-chip cooled color charge-coupled device camera (Hamamatsu Photonics Systems, Bridgewater, N.J.). Images were processed for contrast and brightness and analyzed with the use of IMAGE PRO PLUS 3.1 software (Media Cybernetics, Silver Springs, Md.). Images of 1,024×724 pixels were captured directly on an IBM PC or continuously through video output on a high-resolution Sony VCR model SLV-R1000 (Sony, Tokyo). Imaging at lower magnification that visualized the entire animal was carried out in a light box illuminated by blue light fiber optics (Lightools Research, Encinitas, Calif.) and imaged by using the thermoelectrically cooled color charge-coupled device camera, as described above (Yang, M., Baranov, E., Jiang, P., Sun, F-X., Li, X-M., Li, L., Hasegawa, S., Bouvet, M., Al-Tuwaijri, M., Chishima, T., et al (2000) Proc. Natl. Acad. Sci. USA 97, 1206-11).\nThe mice were perfused through the heart 3 hours after the peptide injection and tissues removed for examination. […]"}, "[5]": {"conditions": "500 μg fluorescein-conjugated peptide i.v., 3 h"}}, "note": "Entries after “also recorded” stand apart in the source; their conditions may differ. Like-named read-outs stand apart in the source and are kept apart here. Ends that are not written are not given here.", "data": [{"sequence": "CGLIIQKNEC (also: cyclic, ring type not given here, fluorescein conjugate, site not given here) [CLT1, cyclic decapeptide from phage library screened on plasma clots; tested as fluorescein conjugate]", "values": [{"measurement": "cytotoxicity for endothelial cells", "setting": "[1]; HUVECs", "value": "cytotoxic for endothelial cells"}, {"measurement": "cell death", "setting": "[1]; confluent HUVECs, 150 μg/ml", "value": "not in confluent HUVECs"}, {"measurement": "cell death", "setting": "[1]; proliferating HUVECs, 150 μg/ml in culture media, within 24 h", "value": "induced cell death"}, {"measurement": "overlay binding in presence of control peptide", "setting": "[2]; co-incubation with control peptide", "value": "not by a control peptide"}, {"measurement": "overlay binding in presence of unlabeled CLT peptide", "setting": "[2]; co-incubation with unlabeled CLT1", "value": "inhibited; also recorded: eliminated"}, {"measurement": "binding pattern in peptide overlay", "setting": "[2]; fluorescein-conjugated peptide 10 μg/ml, 30 min", "value": "produced a fibrillar network"}, {"measurement": "overlay binding", "setting": "[3]", "value": "positive"}, {"measurement": "fluorescence in control / healthy organs", "setting": "[4]; [5]", "value": "not in control organs"}, {"measurement": "fluorescence in tumors, whole tissues under blue light", "setting": "[4]; [5]", "value": "intense fluorescence; also recorded: strong fluorescence"}, {"measurement": "histological distribution of peptide fluorescence within the tumor", "setting": "[4]; fluorescein-conjugated peptide i.v., 3 h, 400×", "value": "distributed in a network pattern"}, {"measurement": "tumor homing / fluorescence on co-injection with unlabeled CLT2", "setting": "[4]; unlabeled CLT2 in 5 fold excess", "value": "strongly reduced"}]}]}
